Measured values: patent US8030294B2, “Compounds for the treatment of psychiatric or substance abuse disorders” (The McLean Hospital Corporation, priority 2000, dated 2011)

Assays:
[1] = in vivo; cited from earlier work
[2] = Forced swim test (FST), a rodent model of depression; type: in vivo; conditions: rats, IP; for effect in the forced swim test: citicoline 50-500 mg/kg, molar equivalent cytidine 23.8-238 mg/kg, choline 13.7-136.6 mg/kg
Source text: The effects of citicoline were examined in the forced swim test (FST), a rodent model of depression.

[3] = 17-item Hamilton Depression Rating Scale (HDRS) in depressed subjects; type: in vivo, human; conditions: eight weeks, CDP-choline 6/12, fluoxetine 17/41
Protocol: In a second study, twelve depressed subjects (mean age 40) received 500 mg of an oral formulation of CDP-choline twice daily for eight weeks.

[4] = cited from earlier work
brain phosphodiesters = assay: Phosphorus-31 MR spectroscopy of brain lipid metabolite resonances in healthy subjects; type: in vivo, human; conditions: healthy subjects (mean age 70), 500 mg oral daily, 6 to 12 weeks; p=0.008
Protocol: To assess whether chronic CDP-choline administration leads to detectable changes in lipid metabolite resonances in phosphorus-31 MR spectra, eighteen healthy subjects (mean age: 70) were administered 500 mg of an oral formulation of CDP-choline daily for a six week period. From weeks 6 to 12, half of the subjects continued to receive CDP-choline and half received placebo in a double-blind fashion. […] CDP-choline administration, therefore, improves measures of verbal fluency and spatial memory in healthy adults and results in increased brain phospholipid synthesis in older adults, particularly during chronic administration.

[5] = cited from earlier work; remark: listed apart in the source
[6] = in vivo; cited from earlier work; remark: listed apart in the source
[7] = system: regional blood volume in putamen, caudate and thalamus; assay: T2 relaxometry (T2-RT) fMRI in children with ADHD; type: in vivo, human; conditions: ADHD boys, vs placebo; P>0.7
Source text: A new fMRI procedure (T2 relaxometry or “T2-RT”) was developed to indirectly assess blood volume in the striatum (caudate and putamen) of boys 6-12 years of age under steady-state conditions. […] Children with ADHD were included if they met criteria for ADHD on structured diagnostic interview, and had at least 6 of 9 symptoms of inattention or hyperactivity-impulsivity. Children with ADHD took part in a triple blind (parent, child, rater), randomized, placebo-controlled study of effects of methylphenidate (0, 0.5, 0.8, 1.5 mg/kg in divided dose) on activity, attention, and fMRI. Children with ADHD were treated continuously for one week with placebo or a specific dose of methylphenidate and at the end of the week were tested for drug efficacy using objective measures of attention and activity and fMRI (See Methods) within 1-3 hours of their afternoon dose. The time between dose and testing was held constant for each subject throughout the four treatment conditions. Activity and attention were evaluated in unmedicated healthy controls using the same procedure as children with ADHD, and fMRI followed within the same time frame.
T2 relaxometry, a novel FMRI procedure, was used to derive steady state blood flow measures and to test for enduring medication effects. […]

[8] = Infrared motion analysis of activity during CPT in children with ADHD; type: in vivo, human; conditions: ADHD boys (n=11) vs placebo; P<0.05
Protocol: (§1) A new fMRI procedure (T2 relaxometry or “T2-RT”) was developed to indirectly assess blood volume in the striatum (caudate and putamen) of boys 6-12 years of age under steady-state conditions. Six healthy control boys (10.2±1.5 yr) and eleven boys diagnosed with ADHD (9.3±1.6 yr) served as subjects in the study to examine fMRI differences between unmedicated healthy controls and ADHD children on either placebo or the highest dose of methylphenidate. […] Activity and attention were evaluated in unmedicated healthy controls using the same procedure as children with ADHD, and fMRI followed within the same time frame.
(§2) Highly accurate laboratory-based measures of activity and attention were obtained by having the children perform a computerized vigilance test while an infrared motion analysis system captured and recorded movements (see Methods). […]
(§3) Assessment of Activity and Attention. […] In brief, children sat in front of a computer and were evaluated using a simple GO/NO-GO CPT in which the subject responds to visual presentation of a target and withholds response to a non-target stimuli that appear in the center of the screen at a fixed 2 second […] interval (Greenberg et al., Psychopharmacol. Bull. 23: 279-282,1987). […]

[9] = Continuous performance task (CPT), a measure of attention, in children with ADHD; type: in vivo, human; conditions: ADHD boys (n=11), one week
Protocol: as §1, §2, §3

Compound: CC(=O)OC[C@H]1O[C@@H](n2ccc(=O)[nH]c2=O)[C@H](OC(C)=O)[C@@H]1OC(C)=O [triacetyl uridine]
- tolerability in mammals [1]: well tolerated

Compound: Nc1ccn([C@@H]2O[C@H](CO)[C@@H](O)[C@H]2O)c(=O)n1 [cytidine]
- effect in the forced swim test [2]: significant antidepressant effects

Compound: CNCCC(Oc1ccc(C(F)(F)F)cc1)c1ccccc1 (centres unmarked) [fluoxetine]
- complete responses (share of subjects) [3]: 41%

Compound: C[N+](C)(C)CCOP(=O)(O)OP(=O)([O-])OC[C@H]1O[C@@H](n2ccc(N)nc2=O)[C@H](O)[C@@H]1O [CDP-choline, cytidine 5′-diphosphocholine]
- tolerability in mammals [1]: well tolerated
- effect in the forced swim test at high doses ([2]; high doses): small pro-depressant effects
- effect in the forced swim test [2]: did not have antidepressant effects
- conversion into the two major circulating metabolites, choline and cytidine ([4]; orally or intravenously): rapidly converted
- excretion via lung ([4]; share of dose): 12.9%
- excretion via urine ([4]; share of dose): 2.4%
- complete responses (share of subjects) [3]: 50%
- brain phosphodiesters (brain phosphodiesters): significant increase
- reported cases of overdoses ([5]; in vivo): no reported cases of overdoses
- symptoms on ingestion of large amounts ([5]; preclinical studies, salivation, lacrimation, urination, defecation, vomiting): common cholinergic symptoms

Compound: O=c1ccn([C@@H]2O[C@H](CO)[C@@H](O)[C@H]2O)c(=O)[nH]1 [uridine]
- tolerability in humans [6]: well tolerated
- tolerability in mammals [1]: well tolerated

Compound: COC(=O)C(c1ccccc1)C1CCCCN1 (centres unmarked) [methylphenidate]
- T2-RT in thalamus [7]: not affected
- complexity of the movement pattern [8]: increasing the complexity of the movement pattern
- CPT performance accuracy ([9]; highest dose vs placebo, P<0.05): enhancing performance accuracy
- response variability (S.D.) of CPT response latency ([9]; reduced from 242 on placebo, P<0.005): 149 ms

Compound: CN(CC(=O)O)C(=N)N [Creatine, creatine]
- tolerability in humans [6]: well tolerated at relatively high doses
